Laboratory results as given in patent publication US8410116B2, “Bis(styryl)pyrimidine or bis(styryl)benzene compounds, pharmaceutically acceptable salts thereof, preparation method thereof, and pharmaceutical composition for prevention or treatment of diseases featuring amyloids comprising the same as an active ingredient” (Korea Institute of Science and Technology, priority 2009, dated 2013).

How the values were obtained:
[1] = biological target: beta amyloid (1-42) (Homo sapiens, UniProt P05067); experiment: Inhibitory activity against beta amyloid fibril formation (ThT fluorescence); format: biochemical; conditions: compound 10 μM, beta amyloid (1-42) 25 μM, 1 hr room temperature, beta amyloid alone (control) = 100
beta amyloid (1-42) (Homo sapiens, UniProt P05067), sequence (P05067 672-713 limits assumed): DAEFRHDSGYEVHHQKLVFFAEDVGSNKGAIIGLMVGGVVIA
Method: The compounds of the present invention were assayed for inhibitory activity against the formation of beta amyloid fibrils as a function of ThT fluorescence intensity as follows. Beta amyloid (1-42) and each of the compounds of Examples 1 to 27 were dissolved in DMSO and diluted with PBS (phosphate-buffered saline, pH 7.4). The final concentrations of beta amyloid (1-42) (control) and each of the compounds of Examples 1 to 27 were set at 25 μM and 10 μM, respectively. The dilutions were incubated at room temperature for 1 hr before a solution of thioflavin T (ThT, 5 μM, pH 8.5) in glycin-NaOH buffer was added thereto. Fluorescence was measured at 450 nm for excitation (slit 10 nm) and […] for emission (slit 10 nm) on 96-well microplates using a multilabel fluorescence counter.

[2] = tested on: HT-22 cells; experiment: Cytotoxicity in HT-22 cell (MTT); format: cell-based, murine; conditions: compound 25 μM, 18 hrs
Method: The following experiment was performed with HT-22 cells in order to examine the cytotoxicity of the compounds of the Examples in accordance with the present invention.
(§1) The murine hippocampal neuronal cell line HT-22 was incubated at 37° C. in DMEM (Dulbecco's Modified Eagle's Medium) supplemented with 10% FBS (fetal bovine serum) and 1% penicillin/streptomycin in a 5% CO2 incubator. Before testing, HT-22 cells were seeded at a density of 5×10^3 cells/well onto 96-well plates containing serum-free DMEM and incubated for 1 hr. Afterwards, each of the compounds of Examples 1 to 27 was added at a concentration of 25 μM to each well before incubation for 18 hrs. 5 mg/ml MTT (3-(4,5-dimethyl-2-thiozolyl)-2,5-diphenyl-2H-tetrazolium bromide) solution was added in an amount of 15 μl per well and incubated for 4 hrs. A solubilization solution (10% SDS, 50% dimethylformamide, pH 4.7) was added in an amount of 100 μl to each well, followed by incubation for 18 hrs. Absorbance at 570 nm/630 nm was read on a microplate reader.

[3] = tested on: HT-22 cells incubated with beta amyloid (Aβ25-35); experiment: Alleviating effect on beta amyloid toxicity in HT-22 cells (MTT); format: cell-based, murine; conditions: Mus musculus, compound pre-incubated 1 hr, then 25 μM beta amyloid (Aβ25-35) for 18 hrs, Aβ25-35 line = toxin alone, read-out: Cell Survival (%)
Method: as §1
The following experiment was performed in order to examine the ability of the compounds of the Examples in accordance with the present invention to alleviate beta amyloid toxicity. HT-22 cells were cultured and incubated with the compounds of Examples 1 to 27 for 1 hr in the same manner as in Example 2. Cell necrosis was induced by beta amyloid toxicity. For this, the cells were incubated with 25 μM of beta amyloid (Aβ25-35) for 18 hrs. Subsequently, a 5 mg/ml MTT solution was added in an amount of 15 μl to each well, followed by incubation for 4 hrs. Then, the cells were again incubated for 18 hrs with 100 μl/well of the solubilization solution. Absorbance at 570 nm/630 nm was read on a microplate reader.

[4] = tested on: beta amyloid (1-42) injected mice; experiment: Y-maze task, acute Alzheimer's disease model; format: in vivo; conditions: mice i.c.v. injected with beta amyloid (1-42), compounds administered for 2 days, test on Day 2
Method: (§2) Mice 4-5 weeks old, each weighing 20˜25 g, were divided into groups of six. Intracerebroventricular injection was performed with a 50 μl Hamilton microsyringe fitted with a disposable 26-gauge needle as described by Laursen and Belknap (Laursen & Belknap, J. Pharmacol. Methods. 1986, 16, 355). It was inserted 2.4 mm deep into the bregma. All samples were administered to groups of 10 via oral routes or food pellets. After the intracerebroventricular injection, the compounds of the present invention were administered for 2 days to the mice which were then subjected to the Y-maze test on Day 2, the cognition test on Days 2 and 3, the passive avoidance test on Days 3 and 4, and the water maze test on Days 3 to 7. All data were averages of 6 measurements (mice).
(§3) Short-term memory was assessed by spontaneous alternation behavior in the Y-maze task. Spontaneous alternation behavior is considered to reflect spatial working memory, which is a form of short-term memory. A mouse was placed in one arm of a Y-maze and allowed to freely pass the three arms for 8 min. Spontaneous alternation behavior was defined as successive entries into the three arms. Percentage spontaneous alternation was calculated as the ratio of actual to possible alternations […], multiplied by 100.

[5] = tested on: beta amyloid (1-42) injected mice; experiment: Cognitive performance task, acute Alzheimer's disease model; format: in vivo; set-up: Cognition % of control: concentration or dose not given beside the values; conditions: for Cognition Preference (investigation time for new matter/total investigation time): mice i.c.v. injected with beta amyloid (1-42), test on Days 2 and 3; for Cognition % of control: preference relative to control mice
Method: as §2
(§4) For the cognitive performance task, two identical substances were respectively placed 5 cm apart from two corners and the time it took for a mouse to investigate the given and new substances was measured. Investigation was defined as the condition in which a mouse sniffed with the head directing toward the substance within a diameter of 2 cm or touched the substance.

[6] = tested on: beta amyloid (1-42) injected mice; experiment: Passive avoidance test, acute Alzheimer's disease model; format: in vivo; set-up: Passive Avoidance % of control: concentration or dose not given beside the values; conditions: for Passive Avoidance % of control: latency relative to control mice; for Passive Avoidance Latency: mice i.c.v. injected with beta amyloid (1-42), test on Days 3 and 4, 24 hours after training
Method: as §2
(§5) A passive avoidance test was performed as described in the literature (Song et al. J. Neurochem., 1998, 71, 875). Used was a passive avoidance box which was divided into two compartments: a lighted one and a dark one, separated by an automatic guillotine door. For training, mice were placed in the lighted compartment and electrically shocked with 0.25 mA for 1 sec whenever they entered the darkened compartment. 24 hours after training, the mice were placed in the lighted compartment and measured for latency time before entering the darkened compartment.

[7] = tested on: beta amyloid (1-42) injected mice; experiment: Water maze test, acute Alzheimer's disease model; format: in vivo; conditions: mice injected with beta amyloid (1-42), Days 3 to 7
Method: as §2
In a water maze test, a mouse, when released from a randomly selected quadrant on each trial, was allowed to swim around the pool in search of an exit while the time taken to reach the platform (latency) was recorded.

[8] = tested on: beta amyloid (1-42) injected mice; experiment: Behavior tests with acute AD model taken together (Y-maze, cognitive performance, passive avoidance); format: in vivo; conditions: for Memory and learning of beta amyloid (1-42) injected mice (in words): data of Table 6, with statistical significance
Method: as §2, §3, §4, §5

[9] = tested on: double transgenic mice with mutations in both APP and presenilin 1; experiment: Y-maze task and cognitive performance tests in transgenic mice; format: in vivo; conditions: food pellets (3 mg/pellet) for 2 months, 10 month old transgenic mice
Method: (§6) Double transgenic mice with mutations in both APP and presenilin 1 were used for the tests. The double transgenic mice, each weighing 26-39 g, were eight months old. They were divided into groups of 10 and administered for 2 to 3 months with the compound of Example 1 through food pellets (3 mg/pellet) before conducting the behavior tests.
After administration of the compound of Example 1 for 2 months (for 10 month old mice), the mice were tested for learning and memory through the Y-maze task and cognitive performance tests.

[10] = tested on: double transgenic mice with mutations in both APP and presenilin 1; experiment: Context fear conditioning in transgenic mice; format: in vivo
Method: as §6
A memory test was performed in context fear conditioning. Five trials of tone-shock pairing of CS-US (conditioned stimulus-unconditioned stimulus) were given to mice. On the next day, the mice were left in the stimulated context under no stimulus conditions and observed for freezing. […] During the test, there was no difference in average body weight between the two groups.

[11] = tested on: amyloid plaques; experiment: Amyloid plaque counts (Congo red) in cerebra of transgenic mice; format: in vivo; conditions: cerebral cortex and hippocampus, 11 months old transgenic mice, versus control
Method: (§7) In order to examine whether this effect resulted from inhibitory activity against the deposition of beta amyloid or from a decrease in the level of beta amyloid, the cerebra of the transgenic mice were immunohistochemically analyzed. In this regard, after being removed from the transgenic mice which were 11 months old upon completion of the behavior test, the right cerebral hemispheres were measured for amyloid plaque levels in the cerebral cortex and hippocampus using an immunostaining or ELISA (Enzyme-linked immunosorbent assay) method.
(§8) Amyloid plaques were stained with Congo red and counted. […] FIG. 4D gives neuronal cell count data, showing a larger crowd in the group treated with the compound of Example 1.

[12] = tested on: beta amyloid (1-40); experiment: ELISA for beta amyloid (1-40) in cerebra of transgenic mice; format: in vivo; conditions: 11 months old transgenic mice, versus control
Method: as §7, §8

[13] = tested on: beta amyloid (1-42); experiment: ELISA for beta amyloid (1-42) in cerebra of transgenic mice; format: in vivo; conditions: 11 months old transgenic mice, versus control
Method: as §7, §8

[14] = tested on: neurons; experiment: Neuronal cell count in cerebra of transgenic mice; format: in vivo; conditions: 11 months old transgenic mice, versus control
Method: as §7, §8

Compound	remaining activity at 10 µM [1]	Cell Survival (%) [2]	viability at 25 µM [3]	Y-Maze Spontaneous Alternation (%) [4]	Cognition Preference (investigation time for new matter/total investigation time) [5]	Cognition % of control [5]	Improvement in passive avoidance performance ([6]; compared to beta amyloid (1-42) injected mice, % of control)	Passive Avoidance % of control [6]	Passive Avoidance Latency [6]	Spatial learning ability in water maze (latency over sessions), FIG. 1 [7]	Learning and memory improvement, dose dependence, FIG. 2 ([8]; 50, 100, 200 mg/kg p.o., Y-maze, cognitive performance, passive avoidance)	Memory and learning of beta amyloid (1-42) injected mice (in words) [8]	Learning and memory in Y-maze and cognitive performance, FIGS. 3A and 3B [9]	Average body weight ([10]; transgenic mice during the test, treated versus control group)	Freezing in context fear conditioning, FIG. 3C ([10]; transgenic mice, compared to control)	Counts of amyloid plaques stained with Congo red, FIG. 4A [11]	Level of beta amyloid (1-40), ELISA, FIG. 4B [12]	Level of beta amyloid (1-42), ELISA, FIG. 4C [13]	Neuronal cell count, FIG. 4D [14]
COc1ccc(/C=C/c2cc(/C=C/c3ccc(OC)c(O)c3)ncn2)cc1O [Ex. 1, (E,E)-4,6-Bis(3′-hydroxy-4′-methoxystyryl)pyrimidine]	19.1 ± 0.6%	135.6 ± 6.1%	91.8 ± 8.8%	72.2%	0.59 ± 0.03	92%	highest improvement	80.9%	144.2 s	recover spatial learning ability	dose-dependent manner	increased memory	memory impairment was alleviated	no difference	longer time freezing	smaller	decreasing pattern	decreasing pattern	larger crowd
CN(C)c1cc(/C=C/c2cc(/C=C/c3ccc(O)c(N(C)C)c3)ncn2)ccc1O [Ex. 2, (E,E)-4,6-Bis[4′-hydroxy-3′-(N,N-dimethylamino)styryl]pyrimidine]	16.5 ± 2.6%	146.2 ± 26.6%	85.3 ± 0.1%	71.3%	0.53 ± 0.05	82%		66.1%	117.8 s	recover spatial learning ability		increased memory							
